Assay results published in the supplement of paper PMC10307832.

Experiments:
Test in all cases: relative viability (nuclei count vs DMSO), 5 days (fraction); higher = more cells survive
[1] = compound: Cn1cc(-c2cnn3c(N)c(Br)c([C@@H]4CCCNC4)nc23)cn1 + O=C(c1cc(Cc2n[nH]c(=O)c3ccccc23)ccc1F)N1CCN(C(=O)C2CC2)CC1 [Olaparib] (partner 8 µM)
How it was run: (§1)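 One day after seeding in 1536-well plates, lung cancer cell lines were dosed by pin tool. Dosing was either single-drug or a fixed anchor-drug dose plus five library-drug doses (not always all listed) in √10 steps. After 5 days, nuclei were stained in one fix-and-stain step and counted on 4× images, and relative viability is the nuclei count of treated wells over that of vehicle wells, given as the median of duplicate plates.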

[2] = compound: Cn1cc(-c2cnn3c(N)c(Br)c([C@@H]4CCCNC4)nc23)cn1 + CC(C)C[C@H](NC(=O)[C@H](Cc1ccccc1)NC(=O)c1cnccn1)B(O)O [Bortezomib] (partner 0.002 µM)
How it was run: as §1

[3] = compound: Cn1cc(-c2cnn3c(N)c(Br)c([C@@H]4CCCNC4)nc23)cn1 + CS(=O)(=O)N1CCN(Cc2cc3nc(-c4cccc5[nH]ncc45)nc(N4CCOCC4)c3s2)CC1 [Pictilisib] (partner 1 µM)
How it was run: as §1

[4] = compound: Cn1cc(-c2cnn3c(N)c(Br)c([C@@H]4CCCNC4)nc23)cn1 + CC(=O)Nc1cccc(-n2c(=O)n(C3CC3)c(=O)c3c(Nc4ccc(I)cc4F)n(C)c(=O)c(C)c32)c1 [Trametinib] (partner 0.02 µM)
How it was run: as §1

Row | Cell Line | relative viability ([1]; first compound 0.05 µM) | relative viability ([1]; first compound 0.1581 µM) | relative viability ([1]; first compound 0.5 µM) | relative viability ([1]; first compound 1.581 µM) | relative viability ([1]; first compound 5 µM) | relative viability ([2]; first compound 0.05 µM) | relative viability ([2]; first compound 0.1581 µM) | relative viability ([2]; first compound 0.5 µM) | relative viability ([2]; first compound 1.581 µM) | relative viability ([2]; first compound 5 µM) | relative viability ([3]; first compound 0.05 µM) | relative viability ([3]; first compound 0.1581 µM) | relative viability ([3]; first compound 0.5 µM) | relative viability ([3]; first compound 1.581 µM) | relative viability ([3]; first compound 5 µM) | relative viability ([4]; first compound 0.05 µM) | relative viability ([4]; first compound 0.1581 µM) | relative viability ([4]; first compound 0.5 µM) | relative viability ([4]; first compound 1.581 µM) | relative viability ([4]; first compound 5 µM)
1 | NCI-H2228 | 0.546 | 0.688 | 0.675 | 0.508 | 0.359 | 1.1 | 1.1 | 0.943 | 0.705 | 0.521 | 0.258 | 0.286 | 0.297 | 0.355 | 0.351 | 0.717 | 0.563 | 0.5 | 0.282 | 0.239
2 | NCI-H2347 | 0.626 | 0.695 | 0.53 | 0.629 | 0.611 | 0.839 | 1.01 | 0.747 | 0.727 | 0.869 | 0.77 | 0.63 | 0.759 | 0.264 | 0.57 | 0.272 | 0.285 | 0.298 | 0.251 | 0.232
3 | NCI-H2405 | 0.875 | 0.954 | 0.901 | 0.857 | 0.659 | 0.961 | 1.06 | 1.01 | 0.95 | 0.691 | 0.466 | 0.37 | 0.396 | 0.327 | 0.314 | 0.642 | 0.644 | 0.553 | 0.577 | 0.455
4 | NCI-H3122 | 0.647 | 0.674 | 0.598 | 0.635 | 0.563 | 1.12 | 1.02 | 1.04 | 1.11 | 1.05 | 0.635 | 0.647 | 0.604 | 0.526 | 0.606 | 0.267 | 0.236 | 0.212 | 0.223 | 0.257
5 | PC-3 [JPC-3] | 1.14 | 1.02 |  | 1.09 | 1.15 | 0.818 | 0.834 | 0.76 | 0.755 | 0.907 | 0.692 | 0.746 | 0.744 | 0.667 | 0.747 | 0.693 | 0.705 |  | 0.642 | 0.608
6 | PC-14 | 0.211 | 0.213 | 0.222 | 0.19 | 0.125 | 0.936 | 0.971 | 0.83 | 0.549 | 0.355 | 0.73 | 0.685 | 0.558 | 0.504 | 0.248 | 0.816 | 0.929 | 0.581 | 0.337 | 0.272
7 | RERF-LC-KJ | 1.05 | 0.996 | 0.869 | 0.762 | 0.662 | 1.12 | 1.17 | 1.02 | 0.96 | 0.953 | 0.593 | 0.53 | 0.384 | 0.359 | 0.346 | 0.88 | 0.839 | 0.835 | 0.8 | 0.657
8 | SK-LU-1 | 0.515 | 0.308 | 0.31 | 0.246 | 0.226 | 1.08 |  | 0.866 | 0.486 | 0.202 | 0.569 | 0.424 | 0.458 | 0.365 | 0.278 | 0.616 | 0.423 | 0.422 | 0.328 | 0.292
9 | SW 1573 | 0.476 | 0.562 | 0.44 | 0.401 | 0.457 | 1.17 | 1.29 | 1.08 | 0.906 | 1.02 | 0.48 | 0.572 | 0.502 | 0.461 | 0.499 | 0.538 | 0.642 | 0.558 | 0.506 | 0.516
10 | UMC-11 | 0.429 | 0.399 | 0.41 | 0.381 | 0.34 | 0.72 | 0.961 | 0.558 | 0.476 | 0.437 | 0.926 | 0.782 | 0.709 | 0.397 | 0.431 | 0.753 | 0.684 | 0.502 | 0.579 | 0.402
